Paper PMC5470993, “Discovery and characterization of small molecule Rac1 inhibitors” (Oncotarget, 2017)
Read-outs that look alike come from different tables or passages of the source.

Legend:
Rac1 (His-Rac1) [1] = molecular target: T1, Rac1 (His-Rac1) (Homo sapiens, UniProt P63000); test: GST-PAK1 pull-down of Rac1-GTP-γS, immunoblot; assay type: binding
T1 construct: wild type by context

[2] = molecular target: T2, Rac1 (endogenous, CD18/HPAF cells) (Homo sapiens, UniProt P63000); test: Rac1-GTP pull-down with GST-PAK1 from EGF-stimulated cells, immunoblot; assay type: cell-based; details: intact cells, 2 h compound, then EGF 100 ng/ml 5 min
T2 construct: endogenous Rac1 of CD18/HPAF human pancreatic cancer cells; Rac1-GTP captured with GST-PAK1 and blotted with Rac1 antibody 23A8

Rac1 (His-Rac1) [3] = molecular target: T1, Rac1 (His-Rac1); test: fluorescence polarization competition with mant-GDP; assay type: binding
Rac1 (His-Rac1) [4] = molecular target: T1, Rac1 (His-Rac1); test: GST-PAK1 pull-down of Rac1-GTP-γS, immunoblot; details: read-out: apparent binding affinity

SMILES | IC50 (Rac1 (His-Rac1) [1]; read-out: IC50) [µM] | EC50 [2] [µM] | Ki (Rac1 (His-Rac1) [3]) [µM] | IC50 (Rac1 (His-Rac1) [1]) [µM] | Kd (Rac1 (His-Rac1) [4]) [µM]
CC(=O)c1cccc(NC(=O)c2ccc(-c3cccc([N+](=O)[O-])c3)o2)c1 [#1, compound #1] | 0.095 ± 0.021 | 8.3 ± 1.7 | 6.8 ± 1.4 |  | 
Cc1cc(C)cc(NC(=O)Cn2cc(C(=O)c3cccs3)c3ccccc32)c1 [#6, compound #6] |  | 22.4 ± 3.2 |  | 0.088 ± 0.048 | 
Nc1nc2c(ncn2[C@@H]2O[C@H](COP(=O)(O)OP(=O)(O)OP(O)(O)=S)[C@@H](O)[C@H]2O)c(=O)[nH]1 [GTP-γS] |  |  |  |  | 0.243 ± 0.093
